How the values were obtained:
Test in all cases: relative viability (nuclei count vs DMSO), 5 days (fraction); higher = more cells survive
[1] = compound: CS(=O)(=O)CCNCc1ccc(-c2ccc3ncnc(Nc4ccc(OCc5cccc(F)c5)c(Cl)c4)c3c2)o1 [Lapatinib] + CS(=O)(=O)N1CCN(Cc2cc3nc(-c4cccc5[nH]ncc45)nc(N4CCOCC4)c3s2)CC1 [Pictilisib] (partner 1 µM)
In short: (§1)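 The day after seeding in 1536-well plates, lung cancer cell lines were treated by pin tool with a single drug, or with a fixed anchor-drug dose together with five library-drug doses (not always all listed) in √10 steps. After 5 days, a combined fix-and-stain solution (final 0.05% Triton X-100, 1% formaldehyde, 1 ug/ml Hoechst) was added. Nuclei counted on 4× images gave relative viability as treated counts over vehicle counts, reported as the median of duplicate plates.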

[2] = compound: CC1=NC=CC(=C1)C2=CC=C(C=C2)CC(=O)NC3=CC=C(C=C3)C4=CN=CC=C4 [Wnt-C59] + Nc1ncn([C@H]2C[C@H](O)[C@@H](CO)O2)c(=O)n1 [Decitabine] (partner 2 µM)
In short: as §1

[3] = compound: CC1=NC=CC(=C1)C2=CC=C(C=C2)CC(=O)NC3=CC=C(C=C3)C4=CN=CC=C4 [Wnt-C59] + C[C@]1(O)C[C@@H](c2nc(-c3ccc4ccc(-c5ccccc5)nc4c3)c3c(N)nccn32)C1 [Linsitinib] (partner 1 µM)
In short: as §1

[4] = compound: CC1=NC=CC(=C1)C2=CC=C(C=C2)CC(=O)NC3=CC=C(C=C3)C4=CN=CC=C4 [Wnt-C59] + COc1cc2c(Oc3ccc(NC(=O)C4(C(=O)Nc5ccc(F)cc5)CC4)cc3F)ccnc2cc1OCCCN1CCOCC1 [Foretinib] (partner 0.25 µM)
In short: as §1

| Cell Line | relative viability ([1]; first compound 0.02 µM) | relative viability ([1]; first compound 0.06325 µM) | relative viability ([1]; first compound 0.2 µM) | relative viability ([1]; first compound 0.6325 µM) | relative viability ([1]; first compound 2 µM) | relative viability ([2]; first compound 0.001 µM) | relative viability ([2]; first compound 0.01 µM) | relative viability ([2]; first compound 0.03162 µM) | relative viability ([2]; first compound 0.1 µM) | relative viability ([3]; first compound 0.001 µM) | relative viability ([3]; first compound 0.01 µM) | relative viability ([3]; first compound 0.03162 µM) | relative viability ([3]; first compound 0.1 µM) | relative viability ([4]; first compound 0.001 µM) | relative viability ([4]; first compound 0.01 µM) | relative viability ([4]; first compound 0.03162 µM) | relative viability ([4]; first compound 0.1 µM) |
| --- | --- | --- | --- | --- | --- | --- | --- | --- | --- | --- | --- | --- | --- | --- | --- | --- | --- |
| A549 | 0.477 | 0.401 | 0.468 | 0.456 | 0.506 | 0.222 | 0.247 | 0.247 | 0.225 | 0.568 | 0.498 | 0.555 | 0.504 | 1.09 | 0.969 | 0.974 | 0.906 |
| NCI-H1299 | 0.871 | 0.768 | 0.859 | 0.801 | 0.803 |  |  |  |  | 0.965 | 1.07 | 0.961 | 1 | 1.15 | 1.06 | 1.05 | 1.11 |
| HCC-44 | 0.606 | 1.03 | 0.66 | 0.654 | 0.421 | 1.01 | 0.963 | 0.95 | 0.939 | 0.745 | 0.641 | 0.665 | 0.644 |  |  |  |  |
| NCI-H838 | 0.48 | 0.409 | 0.505 | 0.449 | 0.458 | 0.459 | 0.509 | 0.453 | 0.402 | 1.07 | 0.997 | 1.01 | 1.04 | 1.04 | 0.961 | 1.08 | 1.03 |
| NCI-H2342 |  |  |  |  |  | 0.713 | 0.787 | 0.748 | 0.692 |  |  |  |  | 1.06 | 1.16 | 1.18 | 1.07 |
| NCI-H460 | 0.057 | 0.276 | 0.303 | 0.355 | 0.251 | 0.503 | 0.488 | 0.594 | 0.465 | 0.789 | 0.809 | 0.869 | 0.7 | 1.03 | 0.966 | 1.02 | 0.94 |
| CAL-12T |  | 0.415 | 0.31 | 0.528 | 0.351 |  |  |  |  | 0.759 | 0.752 | 0.776 | 0.766 | 1.28 | 1.1 | 1.06 | 1.09 |
| NCI-H1650 | 0.253 | 0.415 | 0.672 | 0.663 | 0.503 | 0.494 | 0.482 | 0.407 | 0.408 |  |  |  |  | 1.26 | 1.2 | 1.31 | 1.08 |
| NCI-H650 |  | 0.918 | 0.888 | 0.782 | 1.04 | 0.346 | 0.286 | 0.308 | 0.329 | 0.919 | 0.916 | 0.828 | 0.926 | 0.956 | 1.07 | 1.07 | 0.947 |
| NCI-H2085 | 0.389 | 0.454 | 0.553 | 0.54 | 0.45 | 0.623 | 0.571 | 0.494 | 0.601 | 0.971 | 0.867 | 1.02 | 0.947 | 0.987 | 0.958 | 0.88 | 0.918 |
| NCI-H2126 |  | 0.402 | 0.474 | 0.49 | 0.431 | 0.654 | 0.576 | 0.567 | 0.575 | 0.755 | 0.7 | 0.723 | 0.701 | 1.2 | 1.11 | 1.05 | 1.25 |
| NCI-H1666 | 0.33 | 0.327 | 0.39 | 0.329 | 0.2 | 0.753 | 0.73 | 0.732 | 0.767 | 0.941 | 0.682 | 0.885 | 0.874 | 0.894 | 0.994 | 0.92 | 0.985 |
| NCI-H727 | 0.339 | 0.246 | 0.434 | 0.357 | 0.343 | 0.91 | 0.902 | 0.901 | 0.997 | 0.399 | 0.277 | 0.269 | 0.258 | 0.983 | 0.917 | 0.887 | 0.904 |
| LC-2-ad |  | 0.425 | 0.543 | 0.431 | 0.322 | 0.756 | 0.714 | 0.927 | 0.772 | 0.864 | 0.811 | 0.944 | 0.776 | 0.936 | 0.947 | 1.02 | 0.947 |
| HCC-827 | 0.947 | 1.13 | 0.891 | 1.02 | 0.574 | 0.399 | 0.331 | 0.385 | 0.334 | 1 | 0.966 | 0.977 | 0.884 | 1.08 | 1 | 1.03 | 1.04 |
| NCI-H522 |  |  |  |  |  | 0.707 | 0.739 | 0.782 | 0.666 |  |  |  |  |  |  |  |  |
| SW 900 |  |  |  |  |  | 0.49 | 0.43 | 0.492 | 0.402 |  |  |  |  | 1.14 | 0.667 | 1.18 | 1.01 |
| IA-LM | 0.227 | 0.297 | 0.223 | 0.21 | 0.222 |  |  |  |  | 0.67 | 0.549 | 0.621 | 0.533 | 1.23 | 1.01 | 1.11 | 1.03 |
| NCI-H2228 | 0.51 | 0.321 | 0.567 | 0.403 | 0.259 |  |  |  |  | 0.606 | 0.95 | 0.77 | 0.878 | 0.758 | 0.778 | 0.751 | 0.594 |
| ChaGo-K-1 |  | 0.861 | 0.598 | 0.599 | 0.32 | 0.56 | 0.484 | 0.534 | 0.534 |  |  |  |  | 1.01 | 0.872 | 0.978 | 0.996 |
| NCI-H2170 | 0.281 | 0.207 | 0.275 | 0.244 | 0.237 | 0.47 | 0.516 | 0.506 | 0.474 |  |  |  |  | 0.942 | 0.991 | 1.06 | 1.01 |
| NCI-H1648 |  |  |  |  |  | 0.581 | 0.405 | 0.496 | 0.561 |  |  |  |  |  |  |  |  |
| NCI-H1792 | 0.292 | 0.236 | 0.294 | 0.302 | 0.123 | 0.636 | 0.524 | 0.536 | 0.506 | 0.557 | 0.5 | 0.465 | 0.549 |  |  |  |  |
| EBC-1 | 0.467 | 0.368 | 0.364 | 0.386 | 0.256 |  |  |  |  | 0.927 | 0.912 | 0.925 | 0.814 | 0.112 | 0.11 | 0.126 | 0.106 |

Source: the supplement of paper PMC10307832
